Assay results reported in paper PMC11481179, “Development and Application of Reversible and Irreversible Covalent Probes for Human and Mouse Cathepsin‐K Activity Detection, Revealing Nuclear Activity” (Advanced Science, 2024).

Tests used:
Test in all cases: Recombinant cathepsin inhibition, residual activity labeled by pan cathepsin probe GB123, in-gel fluorescence
Type in all cases: biochemical
CTSL = CTSL (Homo sapiens, UniProt P07711); details: even at 10 µM
Procedure: (§1) Figure 1 In vitro evaluation of CTSK targeted compounds. a) Labeling of recombinant cathepsins by ABPs. Recombinant cathepsins were treated with increasing concentrations of ABPs for 1 h. Samples were separated by SDS‐PAGE and scanned for fluorescence by a Typhoon scanner at 635/670 nm. All probes show dose‐dependent binding to the CTSK, and have lower affinity to CTSS except GD36, b) CTSK [0.5–280 ng] was labeled with the indicated ABPs [5 µM]. Incubations were performed for 1 h at 37 °C, at pH 5.5. Samples were analyzed as described in (a). c) Recombinant cathepsins B, K, L, and S [0.5 µM] were first treated with the indicated concentrations of the inhibitor GD30 or vehicle for 1 h followed by incubation with a pan cathepsin probe GB123 [1 µM] for 1 h. Samples were analyzed as described in (a). d) Quantitative analysis of CTSK inhibition by GD30 presented in (d), data represent mean values ± standard error, n = 3. e) IC50 plot of GD30 inhibition of CTSK activity.
(§2) To further evaluate the probes for their selectivity, we applied a potent and selective covalent inhibitor, Compound 6 (GD30); the inhibitor was generated as a precursor of GD32 and GD36. GD30 was evaluated for its ability to block cathepsin activities by preincubating it with each recombinant enzyme before labeling it by a pan cathepsin ABP, GB123. […]
(§3) Recombinant cathepsin inhibition: Recombinant human CTSL, CTSB, CTSK, and CTSS (0.5 µM) were pretreated with different concentrations of inhibitors (GD30, ODN) for 1 h in reaction buffer (50 mM acetate, 4 mM DTT and 5 mM MgCl2, pH 5.5) at 37 °C. GB123, 1 µM, was added, and incubated with samples for 1 h at 37 °C. The reaction was stopped by the addition of sample buffer 4x (40% glycerol, 0.2 M Tris/HCl pH 6.8, 20% beta-mercaptoethanol, 12% SDS, and 0.4 mg/ml bromophenol blue). Samples were then boiled at 95 °C for 2 mins, separated on a 12.5% SDS gel, and scanned for fluorescence by a Typhoon scanner FLA 9500 at excitation/emission wavelengths of 635/670 nm.
(§4) Recombinant cathepsin labeling: Recombinant human CTSL, CTSB, CTSK, and CTSS (0.5 µM) were pretreated with different concentrations of probes (GD32, GD36, GD37, or GD42)

CTSS = CTSS (Homo sapiens, UniProt P25774); details: even at 10 µM
Procedure: as §1, §2, §3, §4

CTSK = molecular target: T1, CTSK (Homo sapiens, UniProt P43235); details: CTSK 0.5 µM, 1 h preincubation, then GB123 1 µM 1 h, pH 5.5
T1 sequence (P43235 115-329): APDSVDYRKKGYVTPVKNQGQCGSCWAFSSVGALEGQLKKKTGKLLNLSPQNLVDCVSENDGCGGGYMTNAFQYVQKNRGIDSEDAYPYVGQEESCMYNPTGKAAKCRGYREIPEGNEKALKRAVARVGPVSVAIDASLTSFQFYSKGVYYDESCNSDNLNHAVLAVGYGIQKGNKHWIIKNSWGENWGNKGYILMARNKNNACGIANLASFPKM
Procedure: as §1, §2, §3, §4

CTSB = CTSB (Homo sapiens, UniProt P07858); details: even at 10 µM
Procedure: as §1, §2, §3, §4

Sequence of CTSS (P25774 115-331): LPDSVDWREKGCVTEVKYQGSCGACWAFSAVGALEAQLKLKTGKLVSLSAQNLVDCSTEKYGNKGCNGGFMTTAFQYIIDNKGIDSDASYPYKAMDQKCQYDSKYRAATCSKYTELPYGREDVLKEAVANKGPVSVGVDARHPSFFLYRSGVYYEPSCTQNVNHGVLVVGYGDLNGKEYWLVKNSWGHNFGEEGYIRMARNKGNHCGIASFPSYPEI
Sequence of CTSL (P07711 114-333): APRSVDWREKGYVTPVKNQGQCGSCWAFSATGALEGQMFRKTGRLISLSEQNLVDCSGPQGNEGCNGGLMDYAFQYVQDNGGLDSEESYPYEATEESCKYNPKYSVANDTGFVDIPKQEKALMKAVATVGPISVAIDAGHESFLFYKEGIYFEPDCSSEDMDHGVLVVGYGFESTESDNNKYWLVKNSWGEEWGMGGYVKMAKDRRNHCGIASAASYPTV

- inhibition of recombinant cathepsin (CTSL): not inhibiting
- inhibition of recombinant cathepsin (CTSS): not inhibiting
- IC50 (CTSK): 561 nM
- inhibition of recombinant cathepsin (CTSB): not inhibiting
Structure (SMILES): C#CCNC(=O)[C@H](CC(C)C)N[C@@H](c1ccc(-c2ccc(S(=O)(=O)CCNC(=O)OC(C)(C)C)cc2)cc1)C(F)(F)F [GD30]
